Laboratory results as given in the supplement of paper PMC11061612.

Tests used:
Etoposide = compound: COc1cc([C@@H]2c3cc4c(cc3[C@@H](O[C@@H]3O[C@@H]5CO[C@@H](C)O[C@H]5[C@H](O)[C@H]3O)[C@H]3COC(=O)[C@H]23)OCO4)cc(OC)c1O [Etoposide]; details: max 10 µM
Summary of the method: (§1)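 Cancer cell lines in 1536-well plates (7.5 μl DMEM/F12 or RPMI, 10% FBS) were held 24 hours at 37°C and 5% CO2 and then dosed for 72 hours at a final DMSO of typically 0.2%. Viability was taken from CellTiter-Glo 2.0 luminescence, scaled between blank-well and DMSO-well means. Curves were fitted as two-parameter logistic models with a non-linear mixed effects model, from which the single-agent IC50 was taken.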

Dasatinib = compound: CC1=C(C(=CC=C1)Cl)NC(=O)C2=CN=C(S2)NC3=CC(=NC(=N3)C)N4CCN(CC4)CCO [Dasatinib]; details: max 2 µM
Summary of the method: as §1

AZD6738 = compound: C[C@@H]1COCCN1C2=NC(=NC(=C2)C3(CC3)[S@](=N)(=O)C)C4=C5C=CNC5=NC=C4 [AZD6738]; details: max 10 µM
Summary of the method: as §1

Lapatinib = compound: CS(=O)(=O)CCNCc1ccc(-c2ccc3ncnc(Nc4ccc(OCc5cccc(F)c5)c(Cl)c4)c3c2)o1 [Lapatinib]; details: max 10 µM
Summary of the method: as §1

Crizotinib = compound: C[C@@H](Oc1cc(-c2cnn(C3CCNCC3)c2)cnc1N)c1c(Cl)ccc(F)c1Cl [Crizotinib]; details: max 10 µM
Summary of the method: as §1

Palbociclib = compound: CC(=O)c1c(C)c2cnc(Nc3ccc(N4CCNCC4)cn3)nc2n(C2CCCC2)c1=O [Palbociclib]; details: max 10 µM
Summary of the method: as §1

Gefitinib = compound: COc1cc2ncnc(Nc3ccc(F)c(Cl)c3)c2cc1OCCCN1CCOCC1 [Gefitinib]; details: max 10 µM
Summary of the method: as §1

SG3199 = compound: CC1=CN2[C@@H](C1)C=NC3=CC(=C(C=C3C2=O)OC)OCCCCCOC4=C(C=C5C(=C4)N=C[C@@H]6CC(=CN6C5=O)C)OC [SG3199]; details: max 0.001 µM
Summary of the method: as §1

Olaparib = compound: O=C(c1cc(Cc2n[nH]c(=O)c3ccccc23)ccc1F)N1CCN(C(=O)C2CC2)CC1 [Olaparib]; details: max 10 µM
Summary of the method: as §1

Paclitaxel = compound: CC(=O)O[C@H]1C(=O)[C@@]2(C)[C@H]([C@H](OC(=O)c3ccccc3)[C@]3(O)C[C@H](OC(=O)[C@H](O)[C@@H](NC(=O)c4ccccc4)c4ccccc4)C(C)=C1C3(C)C)[C@]1(OC(C)=O)CO[C@@H]1C[C@@H]2O [Paclitaxel]; details: max 3 µM
Summary of the method: as §1

Gemcitabine = compound: Nc1ccn([C@@H]2O[C@H](CO)[C@@H](O)C2(F)F)c(=O)n1 [Gemcitabine]; details: max 0.3 µM
Summary of the method: as §1

SN-38 = compound: CCc1c2c(nc3ccc(O)cc13)-c1cc3c(c(=O)n1C2)COC(=O)[C@]3(O)CC [SN-38]; details: max 0.3 µM
Summary of the method: as §1

AZD5991 = compound: Cc1c2c(nn1C)CSCc1cc(n(C)n1)CSc1cc(c3ccccc3c1)OCCCc1c(C(=O)O)n(C)c3c-2c(Cl)ccc13 [AZD5991]; details: max 1 µM
Summary of the method: as §1

Prexasertib = compound: COc1cccc(OCCCN)c1-c1cc(Nc2cnc(C#N)cn2)n[nH]1 [Prexasertib]; details: max 1 µM
Summary of the method: as §1

Trametinib = compound: CC(=O)Nc1cccc(-n2c(=O)n(C3CC3)c(=O)c3c(Nc4ccc(I)cc4F)n(C)c(=O)c(C)c32)c1 [Trametinib]; details: max 1 µM
Summary of the method: as §1

AZD5153 = compound: COc1nnc2ccc(N3CCC(c4ccc(OCCN5CCN(C)C(=O)[C@H]5C)cc4)CC3)nn12 [AZD5153]; details: max 1 µM
Summary of the method: as §1

AZD5363 = compound: C1CN(CCC1(C(=O)N[C@@H](CCO)C2=CC=C(C=C2)Cl)N)C3=NC=NC4=C3C=CN4 [AZD5363]; details: max 10 µM
Summary of the method: as §1

Selumetinib = compound: Cn1cnc2c(F)c(Nc3ccc(Br)cc3Cl)c(C(=O)NOCCO)cc21 [Selumetinib]; details: max 10 µM
Summary of the method: as §1

SRA737 = compound: N#Cc1cnc(Nc2cc(NC[C@H]3CNCCO3)c(C(F)(F)F)cn2)cn1 [SRA737]; details: max 10 µM
Summary of the method: as §1

MK-2206 = compound: NC1(c2ccc(-c3nc4ccn5c(=O)[nH]nc5c4cc3-c3ccccc3)cc2)CCC1 [MK-2206]; details: max 10 µM
Summary of the method: as §1

AZD7648 = compound: Cc1cc2ncnn2cc1Nc1ncc2c(n1)n(C1CCOCC1)c(=O)n2C [AZD7648]; details: max 10 µM
Summary of the method: as §1

AZD8186 = compound: C[C@@H](Nc1cc(F)cc(F)c1)c1cc(C(=O)N(C)C)cc2c(=O)cc(N3CCOCC3)oc12 [AZD8186]; details: max 10 µM
Summary of the method: as §1

Venetoclax = compound: CC1(C)CCC(CN2CCN(c3ccc(C(=O)NS(=O)(=O)c4ccc(NCC5CCOCC5)c([N+](=O)[O-])c4)c(Oc4cnc5[nH]ccc5c4)c3)CC2)=C(c2ccc(Cl)cc2)C1 [Venetoclax]; details: max 1 µM
Summary of the method: as §1

AZD1775 = compound: C=CCn1c(=O)c2cnc(Nc3ccc(N4CCN(C)CC4)cc3)nc2n1-c1cccc(C(C)(C)O)n1 [AZD1775]
Summary of the method: as §1

AZD0156 = compound: CN(C)CCCOc1ccc(-c2ccc3ncc4c(c3c2)n(C2CCOCC2)c(=O)n4C)cn1 [AZD0156]
Summary of the method: as §1

[1] = compound: O=C(Nc1ccc2[nH]nc(-c3ccncc3)c2c1)[C@@H]1CCN(CC(=O)N2CCN(c3ccc(-c4ncccn4)cc3)CC2)C1; details: max 5 µM
Summary of the method: as §1

Savolitinib = compound: C[C@@H](c1ccc2nccn2c1)n1nnc2ncc(-c3cnn(C)c3)nc21 [Savolitinib]; details: max 1 µM
Summary of the method: as §1

Alisertib = compound: COc1cc(Nc2ncc3c(n2)-c2ccc(Cl)cc2C(c2c(F)cccc2OC)=NC3)ccc1C(=O)O [Alisertib]; details: max 10 µM
Summary of the method: as §1

Taselisib = compound: Cc1nc(-c2cn3c(n2)-c2ccc(-c4cnn(C(C)(C)C(N)=O)c4)cc2OCC3)n(C(C)C)n1 [Taselisib]; details: max 10 µM
Summary of the method: as §1

Carboplatin = compound: C1CC(C1)(C(=O)[O-])C(=O)[O-].N.N.[Pt+2] [Carboplatin]; details: max 10 µM
Summary of the method: as §1

Doxorubicin = compound: COc1cccc2c1C(=O)c1c(O)c3c(c(O)c1C2=O)C[C@@](O)(C(=O)CO)C[C@@H]3O[C@H]1C[C@H](N)[C@H](O)[C@H](C)O1 [Doxorubicin]; details: max 1 µM
Summary of the method: as §1

AZD2811 = compound: CCN(CCO)CCCOc1ccc2c(Nc3cc(CC(=O)Nc4cccc(F)c4)[nH]n3)ncnc2c1 [AZD2811]; details: max 1 µM
Summary of the method: as §1

AZD4320 = compound: CN(CC[C@H](CSC1=CC=CC=C1)NC2=C(C=C(C=C2)S(=O)(=O)NC(=O)C3=CC=C(C=C3)N4CCC(CC4)[C@H](C5=CC=CC=C5C6=CC=C(C=C6)Cl)O)S(=O)(=O)C(F)(F)F)CCO [AZD4320]; details: max 1 µM
Summary of the method: as §1

AZD1390 = compound: CC(C)n1c(=O)n(C)c2cnc3cc(F)c(-c4ccc(OCCCN5CCCCC5)nc4)cc3c21 [AZD1390]; details: max 0.3 µM
Summary of the method: as §1

5-Fluorouracil = compound: O=c1[nH]cc(F)c(=O)[nH]1 [5-Fluorouracil]; details: max 20 µM
Summary of the method: as §1

Cell Line	IC50, cell viability 72 h (Etoposide)	IC50, cell viability 72 h (Dasatinib)	IC50, cell viability 72 h (AZD6738)	IC50, cell viability 72 h (Lapatinib)	IC50, cell viability 72 h (Crizotinib)	IC50, cell viability 72 h (Palbociclib)	IC50, cell viability 72 h (Gefitinib)	IC50, cell viability 72 h (SG3199)	IC50, cell viability 72 h (Olaparib)	IC50, cell viability 72 h (Paclitaxel)	IC50, cell viability 72 h (Gemcitabine)	IC50, cell viability 72 h (SN-38)	IC50, cell viability 72 h (AZD5991)	IC50, cell viability 72 h (Prexasertib)	IC50, cell viability 72 h (Trametinib)	IC50, cell viability 72 h (AZD5153)	IC50, cell viability 72 h (AZD5363)	IC50, cell viability 72 h (Selumetinib)	IC50, cell viability 72 h (SRA737)	IC50, cell viability 72 h (MK-2206)	IC50, cell viability 72 h (AZD7648)	IC50, cell viability 72 h (AZD8186)	IC50, cell viability 72 h (Venetoclax)	IC50, cell viability 72 h (AZD1775; max 3 µM)	IC50, cell viability 72 h (AZD0156; max 3 µM)	IC50, cell viability 72 h [1]	IC50, cell viability 72 h (Savolitinib)	IC50, cell viability 72 h (Alisertib)	IC50, cell viability 72 h (Taselisib)	IC50, cell viability 72 h (Carboplatin)	IC50, cell viability 72 h (Doxorubicin)	IC50, cell viability 72 h (AZD2811)	IC50, cell viability 72 h (AZD4320)	IC50, cell viability 72 h (AZD1390)	IC50, cell viability 72 h (5-Fluorouracil)	IC50, cell viability 72 h (AZD1775; max 1 µM)	IC50, cell viability 72 h (AZD0156; max 1 µM)
RPMI-6666 (Non-Cancerous)	0.401 µM	170 nM	3.9 µM	> 10 µM	6.93 µM	8.62 µM	> 10 µM	> 1 nM	> 10 µM	3.63 nM	5.75 nM	2.31 nM	731 nM	5.81 nM	> 1000 nM	154 nM	2.95 µM	> 10 µM	2.46 µM	4.64 µM	> 10 µM	1.33 µM	174 nM	234 nM	> 3000 nM	> 5 µM	> 1000 nM	406 nM	0.621 µM	> 10 µM	58.3 nM	469 nM	37.1 nM	> 300 nM	3.43 µM	–	–
NCI-H28 (Mesothelioma)	> 10 µM	304 nM	> 10 µM	> 10 µM	> 10 µM	> 10 µM	> 10 µM	> 1 nM	> 10 µM	825 nM	140 nM	> 300 nM	> 1000 nM	327 nM	> 1000 nM	> 1000 nM	> 10 µM	> 10 µM	> 10 µM	> 10 µM	> 10 µM	> 10 µM	> 1000 nM	> 3000 nM	> 3000 nM	> 5 µM	> 1000 nM	> 10000 nM	> 10 µM	> 10 µM	> 1000 nM	> 1000 nM	> 1000 nM	> 300 nM	> 20 µM	–	–
MDA-MB-468 (Breast Carcinoma)	> 10 µM	> 2000 nM	6.88 µM	9.24 µM	> 10 µM	> 10 µM	–	> 1 nM	> 10 µM	111 nM	263 nM	40 nM	> 1000 nM	618 nM	415 nM	> 1000 nM	> 10 µM	> 10 µM	> 10 µM	9.17 µM	> 10 µM	9.07 µM	> 1000 nM	1790 nM	> 3000 nM	> 5 µM	–	1520 nM	> 10 µM	> 10 µM	> 1000 nM	> 1000 nM	670 nM	> 300 nM	> 20 µM	–	–
PCI-30 (Head and Neck Carcinoma)	> 10 µM	> 2000 nM	> 10 µM	> 10 µM	> 10 µM	> 10 µM	> 10 µM	> 1 nM	> 10 µM	> 3000 nM	> 300 nM	110 nM	> 1000 nM	74 nM	> 1000 nM	> 1000 nM	> 10 µM	> 10 µM	> 10 µM	> 10 µM	> 10 µM	> 10 µM	> 1000 nM	> 3000 nM	> 3000 nM	> 5 µM	> 1000 nM	> 10000 nM	> 10 µM	> 10 µM	> 1000 nM	> 1000 nM	> 1000 nM	> 300 nM	> 20 µM	–	–
LoVo (Colorectal Carcinoma)	> 10 µM	> 2000 nM	1.17 µM	> 10 µM	> 10 µM	7.65 µM	> 10 µM	> 1 nM	> 10 µM	70.3 nM	138 nM	108 nM	> 1000 nM	24.4 nM	156 nM	> 1000 nM	7.27 µM	5.81 µM	8.63 µM	5.23 µM	> 10 µM	0.952 µM	> 1000 nM	192 nM	> 3000 nM	1.68 µM	> 1000 nM	> 10000 nM	5.55 µM	> 10 µM	> 1000 nM	> 1000 nM	> 1000 nM	> 300 nM	> 20 µM	–	–
RH-18 (Rhabdomyosarcoma)	–	–	> 10 µM	–	–	–	–	> 1 nM	> 10 µM	–	–	> 300 nM	–	> 1000 nM	–	–	–	–	–	–	> 10 µM	–	–	–	–	–	–	–	–	–	909 nM	> 1000 nM	–	–	–	> 1000 nM	> 1000 nM
